Experimental data: patent US9283280B2, “Compositions for drug administration” (Aegis Therapeutics, LLC, priority 2008, dated 2016)

How the values were obtained:
blood D-glucose [1] = assay: Insulin eye drops with absorption enhancer in xylazine/ketamine-anesthetized hyperglycemic rats, blood D-glucose; type: in vivo, rat; details: for hypoglycemic effect / insulin absorption enhancement: eye drops 0.2% insulin + 0.5% enhancer; for absorption enhancing activity by alkyl chain length: ocular insulin, concentration not given
[2] = Intranasal triptans with alkylsaccharide in rats, plasma levels by HPLC; type: in vivo;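 also: rats in groups of eight given 20 µL into one nostril, dose expressed as triptan free base, Cmax and Tmax read from plasma concentration–time curves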
Method: Each set of drug solutions is administered to six groups of eight rats each by 20 uL instillation to a single nare of each animal. […] After the last blood sample is collected each animal is cuthanizcd with CO2. After blood collection, plasma is immediately prepared from each blood sample using lithium/heparin as the anticoagulant. Plasma samples are stored at −70° C. until analyzed. […] The observed Tmax values from each plot is determined by inspection of the concentration vs time plots and recorded as shown in Table XII. The doses designated in this table reflect amounts of triptan free base in each case.

blood D-glucose [3] = assay: Glucagon eye drops with surfactant in rats, elevation of blood D-glucose; details: for Blood Glucose Concentration: glucagon eye drops + 0.5% surfactant added after 120 min
Method: Glucagon absorption from the eye was measured in rats given eye drops containing various surfactants plus glucagon (30 μg) (Eli Lilly, Indianapolis, Ind.) by monitoring an elevation in blood D-glucose levels. In these experiments, rats were anesthetized with sodium pentobarbital rather than xylazine/ketamin.
Paired animals that receive eye drops containing the surfactant alone, or glucagon alone, were compared to animals receiving eye drops with the surfactant plus glucagon.

[4] = 0.5% surfactant, time −10 min, before insulin eye drops
[5] = 0.5% surfactant, time −20 min, before insulin eye drops
[6] = insulin eye drops + 0.5% surfactant, time 0 min
[7] = insulin eye drops + 0.5% surfactant, time 10 min
[8] = insulin eye drops + 0.5% surfactant, time 20 min
[9] = insulin eye drops + 0.5% surfactant, time 30 min
[10] = insulin eye drops + 0.5% surfactant, time 40 min
[11] = insulin eye drops + 0.5% surfactant, time 50 min
[12] = insulin eye drops + 0.5% surfactant, time 60 min
[13] = insulin eye drops + 0.5% surfactant, time 70 min
[14] = insulin eye drops + 0.5% surfactant, time 80 min
[15] = insulin eye drops + 0.5% surfactant, time 90 min
[16] = insulin eye drops + 0.5% surfactant, time 100 min
[17] = insulin eye drops + 0.5% surfactant, time 110 min
[18] = insulin eye drops + 0.5% surfactant, time 120 min
[19] = Naratriptan 0.22 mg/kg intranasal, alkylsaccharide 0.02%
[20] = Naratriptan 0.22 mg/kg intranasal, alkylsaccharide 0.05%
[21] = Naratriptan 0.22 mg/kg intranasal, alkylsaccharide 0.1%
[22] = Naratriptan 0.22 mg/kg intranasal, alkylsaccharide 0.5%
[23] = Naratriptan 0.22 mg/kg intranasal, alkylsaccharide 2%
[24] = Rizatriptan […] intranasal, alkylsaccharide 0.02%
[25] = Rizatriptan […] intranasal, alkylsaccharide 0.05%
[26] = Rizatriptan […] intranasal, alkylsaccharide 0.1%
[27] = Rizatriptan […] intranasal, alkylsaccharide 0.5%
[28] = Rizatriptan […] intranasal, alkylsaccharide 2%
[29] = Sumatriptan 6.2 mg/kg intranasal, alkylsaccharide 0.02%
[30] = Sumatriptan 6.2 mg/kg intranasal, alkylsaccharide 0.05%
[31] = Sumatriptan 6.2 mg/kg intranasal, alkylsaccharide 0.1%
[32] = Sumatriptan 6.2 mg/kg intranasal, alkylsaccharide 0.5%
[33] = Sumatriptan 6.2 mg/kg intranasal, alkylsaccharide 2%
[34] = insulin eye drops + 0.5% alkylglucoside

CCCCCCCCCCO[C@@H]1O[C@H](CO)[C@@H](O[C@H]2O[C@H](CO)[C@@H](O)[C@H](O)[C@H]2O)[C@H](O)[C@H]1O [decyl maltoside, decyl-β-D-maltoside]
Blood Glucose Concentration (blood D-glucose [1]; [4]): 287 mg/dL | Blood Glucose Concentration (blood D-glucose [1]; [5]): 249 mg/dL | hypoglycemic effect / insulin absorption enhancement (blood D-glucose [1]): prompt and sustained fall in blood glucose levels | Blood Glucose Concentration (blood D-glucose [1]; [6]): 337 mg/dL | Blood Glucose Concentration (blood D-glucose [1]; [7]): 304 mg/dL | Blood Glucose Concentration (blood D-glucose [1]; [8]): 292 mg/dL | Blood Glucose Concentration (blood D-glucose [1]; [9]): 221 mg/dL | Blood Glucose Concentration (blood D-glucose [1]; [10]): 164 mg/dL | Blood Glucose Concentration (blood D-glucose [1]; [11]): 138 mg/dL | Blood Glucose Concentration (blood D-glucose [1]; [12]): 114 mg/dL | Blood Glucose Concentration (blood D-glucose [1]; [13]): 104 mg/dL | Blood Glucose Concentration (blood D-glucose [1]; [14]): 110 mg/dL | Blood Glucose Concentration (blood D-glucose [1]; [15]): 120 mg/dL | Blood Glucose Concentration (blood D-glucose [1]; [16]): 92 mg/dL | Blood Glucose Concentration (blood D-glucose [1]; [17]): 81 mg/dL | Blood Glucose Concentration (blood D-glucose [1]; [18]): 87 mg/dL | absorption enhancing activity by alkyl chain length (blood D-glucose [1]): less absorption enhancing activity | Ratio Cmax(alkylsacch)/Cmax(No alkylsacch) [2, 19]: ≦1.5 | Tmax [2, 19]: ~1 to 2 h | Ratio Cmax(alkylsacch)/Cmax(No alkylsacch) [2, 20]: ≦1.5 | Tmax [2, 20]: ~1 to 2 h | Ratio Cmax(alkylsacch)/Cmax(No alkylsacch) [2, 21]: ≧1.5 | Tmax [2, 21]: ~1 to 2 h | Ratio Cmax(alkylsacch)/Cmax(No alkylsacch) [2, 22]: ≧1.5 | Tmax [2, 22]: ~0.083 to 0.25 h | Ratio Cmax(alkylsacch)/Cmax(No alkylsacch) [2, 23]: ≧1.5 | Tmax [2, 23]: ~0.083 to 0.25 h | Tmax [2, 24]: ~1 to 2 h | Tmax [2, 25]: ~1 to 2 h | Tmax [2, 26]: ~1 to 2 h | Tmax [2, 27]: ~0.083 to 0.25 h | Tmax [2, 28]: ~0.083 to 0.25 h | Ratio Cmax(alkylsacch)/Cmax(No alkylsacch) [2, 29]: ≦1.5 | Tmax [2, 29]: ~1 to 2 h | Ratio Cmax(alkylsacch)/Cmax(No alkylsacch) [2, 30]: ≦1.5 | Tmax [2, 30]: ~1 to 2 h | Ratio Cmax(alkylsacch)/Cmax(No alkylsacch) [2, 31]: ≧1.5 | Tmax [2, 31]: ~1 to 2 h | Ratio Cmax(alkylsacch)/Cmax(No alkylsacch) [2, 32]: ≧1.5 | Tmax [2, 32]: ~0.083 to 0.25 h | Ratio Cmax(alkylsacch)/Cmax(No alkylsacch) [2, 33]: ≧1.5 | Tmax [2, 33]: ~0.083 to 0.25 h | glucagon absorption / blood D-glucose values (blood D-glucose [3]; eye drops surfactant plus glucagon in rats previously treated with surfactant plus insulin eye drops): increase significantly | Blood Glucose Concentration (blood D-glucose [3]; time 130 min): 95 mg/dL | Blood Glucose Concentration (blood D-glucose [3]; time 140 min): 99 mg/dL | Blood Glucose Concentration (blood D-glucose [3]; time 150 min): 132 mg/dL | Blood Glucose Concentration (blood D-glucose [3]; time 160 min): 157 mg/dL | Blood Glucose Concentration (blood D-glucose [3]; time 170 min): 171 mg/dL | Blood Glucose Concentration (blood D-glucose [3]; time 180 min): 180 mg/dL | Blood Glucose Concentration (blood D-glucose [3]; time 190 min): 189 mg/dL

CCCCCCCCCOC1O[C@H](CO)[C@@H](O)[C@H](O)[C@H]1O (some centres unmarked) [nonylglucoside, nonylglucopyranoside]
hypoglycemic effect / insulin absorption enhancement (blood D-glucose [1]): effectively stimulated insulin absorption | blood glucose level, initial (from) (blood D-glucose [1]; [34]): 297 mg/dL | blood glucose level, reduced (to) (blood D-glucose [1]; [34]): 150 mg/dL

CCCCCCCOC1O[C@H](CO)[C@@H](O)[C@H](O)[C@H]1O (some centres unmarked) [heptylglucoside, heptylglucopyranoside]
hypoglycemic effect / insulin absorption enhancement (blood D-glucose [1]): ineffective

CCCCCCOC1O[C@H](CO)[C@@H](O)[C@H](O)[C@H]1O (some centres unmarked) [hexylglucoside, Hexylglucopyranoside]
hypoglycemic effect / insulin absorption enhancement (blood D-glucose [1]): ineffective

dodecylsucrose [dodecyl sucrose]
Blood Glucose Concentration (blood D-glucose [1]; [4]): 305 mg/dL | Blood Glucose Concentration (blood D-glucose [1]; [5]): 266 mg/dL | Blood Glucose Concentration (blood D-glucose [1]; [6]): 351 mg/dL | Blood Glucose Concentration (blood D-glucose [1]; [7]): 347 mg/dL | Blood Glucose Concentration (blood D-glucose [1]; [8]): 252 mg/dL | Blood Glucose Concentration (blood D-glucose [1]; [9]): 161 mg/dL | Blood Glucose Concentration (blood D-glucose [1]; [10]): 120 mg/dL | Blood Glucose Concentration (blood D-glucose [1]; [11]): 105 mg/dL | Blood Glucose Concentration (blood D-glucose [1]; [12]): 114 mg/dL | Blood Glucose Concentration (blood D-glucose [1]; [13]): 113 mg/dL | Blood Glucose Concentration (blood D-glucose [1]; [14]): 104 mg/dL | Blood Glucose Concentration (blood D-glucose [1]; [15]): 86 mg/dL | Blood Glucose Concentration (blood D-glucose [1]; [16]): 113 mg/dL | Blood Glucose Concentration (blood D-glucose [1]; [17]): 107 mg/dL | Blood Glucose Concentration (blood D-glucose [1]; [18]): 112 mg/dL | blood glucose level (blood D-glucose [1]; insulin eye drops + […] alkyl saccharide, time 0 min): 335 mg/dL | blood glucose level (blood D-glucose [1]; insulin eye drops + […] alkyl saccharide, time 120 min): 150 mg/dL | Tmax [2, 19]: ~1 h | Tmax [2, 20]: ~0.083 to 0.25 h | Tmax [2, 21]: ~0.083 to 0.25 h | Tmax [2, 22]: ~0.083 to 0.25 h | Tmax [2, 23]: ~0.083 to 0.25 h | Tmax [2, 24]: ~1 h | Tmax [2, 25]: ~0.083 to 0.25 h | Tmax [2, 26]: ~0.083 to 0.25 h | Tmax [2, 27]: ~0.083 to 0.25 h | Tmax [2, 28]: ~0.083 to 0.25 h | Tmax [2, 29]: ~1 h | Tmax [2, 30]: ~0.083 to 0.25 h | Tmax [2, 31]: ~0.083 to 0.25 h | Tmax [2, 32]: ~0.083 to 0.25 h | Tmax [2, 33]: ~0.083 to 0.25 h

CCCCCCCCO[C@@H]1O[C@H](CO)[C@@H](O[C@H]2O[C@H](CO)[C@@H](O)[C@H](O)[C@H]2O)[C@H](O)[C@H]1O [octyl maltoside, Octyl-β-D-maltoside]
absorption enhancing activity by alkyl chain length (blood D-glucose [1]): no | Ratio Cmax(alkylsacch)/Cmax(No alkylsacch) [2, 19]: ≦1.5 | Tmax [2, 19]: ~1 to 2 h | Ratio Cmax(alkylsacch)/Cmax(No alkylsacch) [2, 20]: ≦1.5 | Tmax [2, 20]: ~1 to 2 h | Ratio Cmax(alkylsacch)/Cmax(No alkylsacch) [2, 21]: ≦1.5 | Tmax [2, 21]: ~1 to 2 h | Ratio Cmax(alkylsacch)/Cmax(No alkylsacch) [2, 22]: ≦1.5 | Tmax [2, 22]: ~1 to 2 h | Ratio Cmax(alkylsacch)/Cmax(No alkylsacch) [2, 23]: ≦1.5 | Tmax [2, 23]: ~1 to 2 h | Tmax [2, 24]: ~1 to 2 h | Tmax [2, 25]: ~1 to 2 h | Tmax [2, 26]: ~1 to 2 h | Tmax [2, 27]: ~1 to 2 h | Tmax [2, 28]: ~1 to 2 h | Ratio Cmax(alkylsacch)/Cmax(No alkylsacch) [2, 29]: ≦1.5 | Tmax [2, 29]: ~1 to 2 h | Ratio Cmax(alkylsacch)/Cmax(No alkylsacch) [2, 30]: ≦1.5 | Tmax [2, 30]: ~1 to 2 h | Ratio Cmax(alkylsacch)/Cmax(No alkylsacch) [2, 31]: ≦1.5 | Tmax [2, 31]: ~1 to 2 h | Ratio Cmax(alkylsacch)/Cmax(No alkylsacch) [2, 32]: ≦1.5 | Tmax [2, 32]: ~1 to 2 h | Ratio Cmax(alkylsacch)/Cmax(No alkylsacch) [2, 33]: ≦1.5 | Tmax [2, 33]: ~1 to 2 h

decylsucrose
hypoglycemic effect / insulin absorption enhancement (blood D-glucose [1]): effective in reducing blood glucose levels | blood glucose level (blood D-glucose [1]; insulin eye drops + 0.5% alkyl saccharide, time 0 min): 313 mg/dL | blood glucose level (blood D-glucose [1]; insulin eye drops + 0.5% alkyl saccharide, time 120 min): 164 mg/dL
